Data reported in paper doi:10.1101/2024.06.17.599304v1, “Dizocilpine derivatives with neuroprotective effect lacking the psychomimetic side effects” (biorxiv, 2024).
Structures can show the parent of a compound that is named as a salt. Where two headings read alike, the source gives them in different places.

Experiments:
[1] = biological target: T1, human plasmatic butyrylcholinesterase (hBChE) (Homo sapiens, UniProt P06276); assay: biochemical
T1 construct: gene BCHE

[2] = biological target: T2, hGluN1/hGluN2B (Homo sapiens, UniProt Q05586+Q13224); assay: whole-cell patch clamp, HEK293; type: cell-based; parameters: gene GRIN1; cDNA vectors for human GluN1-1a and GluN2B co-transfected with GFP in HEK293 cells; diheteromeric receptor; settings: -60 mV; 1 mM L-glutamate, 100 µM glycine; pH 7.3; voltage-dependent block
Excerpt: whole-cell patch clamp, HEK293 on hGluN1/hGluN2B

[3] = biological target: T3, hGluN1/hGluN2A (Homo sapiens, UniProt Q05586+Q12879); assay: whole-cell patch clamp, HEK293; type: cell-based; parameters: gene GRIN1; cDNA vectors for human GluN1-1a and GluN2A co-transfected with GFP in HEK293 cells; diheteromeric receptor; settings: -60 mV; 1 mM L-glutamate, 100 µM glycine; pH 7.3; voltage-dependent block
Excerpt: whole-cell patch clamp, HEK293 on hGluN1/hGluN2A

[4] = biological target: T4, human recombinant AChE (hAChE) (Homo sapiens, UniProt P22303); assay: modified Ellman's method; type: biochemical
T4 construct: recombinant enzyme purchased from Merck

[5] = biological target: T3, hGluN1/hGluN2A; assay: cell-based; parameters: gene GRIN1; cDNA vectors for human GluN1-1a and GluN2A co-transfected with GFP in HEK293 cells; diheteromeric receptor; whole-cell voltage-clamp electrophysiology, inhibition of steady-state L-glutamate-induced currents at -60 mV; settings: HEK293; -60 mV, 1 mM L-glutamate
Method: (§1) First, we determined the relative inhibition of all novel compounds on the two major diheteromeric NMDA receptor subtypes in the adult cortex – GluN1/GluN2A and GluN1/GluN2B [1] – using a clinically relevant concentration (3 µM). We kept the measured cells at a membrane potential of -60 mV, and the values of relative inhibition by the compounds were calculated from the L-glutamate-induced responses of human versions of the GluN1/GluN2A (hGluN1/hGluN2A) and GluN1/GluN2B (hGluN1/hGluN2B) receptors obtained under steady-state conditions. […] Specifically, in the case of hGluN1/hGluN2A receptors, we obtained relative inhibition values ranging from ∼5% for compound 3h to ∼93% for compound 6f, while for hGluN1/hGluN2B receptors, we measured values ranging from ∼3% for compound 3i to ∼92% for compound 6g at a fixed dose of 3 µM of the tested compound. […] It can be assumed that the positive and negative effects of a given inhibitor of the NMDA receptor in vivo are caused by their affinity and the kinetics of inhibition, in addition to their availability in the CNS. […] In further experiments, we generated concentration-response curves for 6f (0.03-10 µM) and 3l (0.3-300 µM) on both hGluN1/hGluN2A and hGluN1/hGluN2B receptors at negative (-60 mV) and positive (40 mV) membrane potentials (Fig. 2A-D). […] (A, C) Representative whole-cell voltage-clamp recordings of HEK293 cells expressing hGluN1/hGluN2A or hGluN1/hGluN2B receptors showing the inhibitory effects of compound 6f (0.03 - 300 µM) and compound 3l (0.3 - 300 µM) at membrane potentials of 40 mV (A) and -60 mV (C). Glu = 1 mM L-glutamate. (B, D) Normalized inhibitory concentration-response curves for compound 6f and compound 3l for hGluN1/hGluN2A and hGluN1/hGluN2B receptors at membrane potentials of 40 mV (B) and -60 mV (D). Concentration-response curves were fitted using Equation 1; the resulting IC50 values, Hill coefficients, and the numbers of cells measured for each membrane potential are shown in Table 3.

[6] = biological target: T2, hGluN1/hGluN2B; assay: cell-based; parameters: gene GRIN1; cDNA vectors for human GluN1-1a and GluN2B co-transfected with GFP in HEK293 cells; diheteromeric receptor; whole-cell voltage-clamp electrophysiology, inhibition of steady-state L-glutamate-induced currents at -60 mV; settings: HEK293; -60 mV, 1 mM L-glutamate
Method: as §1

[7] = biological target: T1, human plasmatic butyrylcholinesterase (hBChE)

T3 sequence (Q12879 23-1464, other chains not shown): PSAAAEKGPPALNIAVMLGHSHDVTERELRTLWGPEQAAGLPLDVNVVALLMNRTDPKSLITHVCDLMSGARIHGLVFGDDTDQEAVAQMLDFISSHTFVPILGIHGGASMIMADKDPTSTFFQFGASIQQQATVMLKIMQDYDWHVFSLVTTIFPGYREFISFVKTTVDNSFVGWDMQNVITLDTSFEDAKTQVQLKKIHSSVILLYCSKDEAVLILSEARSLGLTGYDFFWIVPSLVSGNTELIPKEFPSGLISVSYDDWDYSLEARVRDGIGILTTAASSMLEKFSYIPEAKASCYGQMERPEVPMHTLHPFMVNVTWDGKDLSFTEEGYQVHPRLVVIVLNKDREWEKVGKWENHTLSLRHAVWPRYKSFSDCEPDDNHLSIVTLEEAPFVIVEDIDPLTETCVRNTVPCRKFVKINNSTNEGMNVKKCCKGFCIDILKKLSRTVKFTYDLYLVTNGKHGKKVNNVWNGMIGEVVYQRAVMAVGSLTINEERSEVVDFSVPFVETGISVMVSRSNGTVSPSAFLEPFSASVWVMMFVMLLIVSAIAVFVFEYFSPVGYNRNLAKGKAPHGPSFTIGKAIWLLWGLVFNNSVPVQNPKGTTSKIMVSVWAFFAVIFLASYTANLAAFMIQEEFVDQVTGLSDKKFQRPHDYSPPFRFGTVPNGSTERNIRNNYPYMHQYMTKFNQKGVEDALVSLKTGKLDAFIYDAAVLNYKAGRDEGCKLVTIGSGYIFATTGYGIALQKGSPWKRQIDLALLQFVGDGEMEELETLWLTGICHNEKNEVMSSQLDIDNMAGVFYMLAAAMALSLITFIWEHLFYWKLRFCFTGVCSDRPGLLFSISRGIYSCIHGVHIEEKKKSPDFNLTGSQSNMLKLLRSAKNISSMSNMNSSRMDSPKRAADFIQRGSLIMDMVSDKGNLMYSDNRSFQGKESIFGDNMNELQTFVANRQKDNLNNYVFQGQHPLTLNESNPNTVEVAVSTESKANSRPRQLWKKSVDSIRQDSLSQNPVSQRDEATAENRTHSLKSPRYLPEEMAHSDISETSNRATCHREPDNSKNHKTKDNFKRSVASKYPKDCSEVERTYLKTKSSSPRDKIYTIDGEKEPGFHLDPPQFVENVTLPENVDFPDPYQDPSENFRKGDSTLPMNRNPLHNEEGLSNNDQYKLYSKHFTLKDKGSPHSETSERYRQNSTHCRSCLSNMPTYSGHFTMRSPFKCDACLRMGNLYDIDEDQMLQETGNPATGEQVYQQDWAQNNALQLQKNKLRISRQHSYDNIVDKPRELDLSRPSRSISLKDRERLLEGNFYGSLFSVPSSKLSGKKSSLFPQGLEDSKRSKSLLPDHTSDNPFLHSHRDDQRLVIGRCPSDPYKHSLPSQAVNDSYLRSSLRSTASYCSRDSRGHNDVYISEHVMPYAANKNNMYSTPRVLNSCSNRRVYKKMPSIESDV
T2 sequence (Q13224 27-1484, other chains not shown): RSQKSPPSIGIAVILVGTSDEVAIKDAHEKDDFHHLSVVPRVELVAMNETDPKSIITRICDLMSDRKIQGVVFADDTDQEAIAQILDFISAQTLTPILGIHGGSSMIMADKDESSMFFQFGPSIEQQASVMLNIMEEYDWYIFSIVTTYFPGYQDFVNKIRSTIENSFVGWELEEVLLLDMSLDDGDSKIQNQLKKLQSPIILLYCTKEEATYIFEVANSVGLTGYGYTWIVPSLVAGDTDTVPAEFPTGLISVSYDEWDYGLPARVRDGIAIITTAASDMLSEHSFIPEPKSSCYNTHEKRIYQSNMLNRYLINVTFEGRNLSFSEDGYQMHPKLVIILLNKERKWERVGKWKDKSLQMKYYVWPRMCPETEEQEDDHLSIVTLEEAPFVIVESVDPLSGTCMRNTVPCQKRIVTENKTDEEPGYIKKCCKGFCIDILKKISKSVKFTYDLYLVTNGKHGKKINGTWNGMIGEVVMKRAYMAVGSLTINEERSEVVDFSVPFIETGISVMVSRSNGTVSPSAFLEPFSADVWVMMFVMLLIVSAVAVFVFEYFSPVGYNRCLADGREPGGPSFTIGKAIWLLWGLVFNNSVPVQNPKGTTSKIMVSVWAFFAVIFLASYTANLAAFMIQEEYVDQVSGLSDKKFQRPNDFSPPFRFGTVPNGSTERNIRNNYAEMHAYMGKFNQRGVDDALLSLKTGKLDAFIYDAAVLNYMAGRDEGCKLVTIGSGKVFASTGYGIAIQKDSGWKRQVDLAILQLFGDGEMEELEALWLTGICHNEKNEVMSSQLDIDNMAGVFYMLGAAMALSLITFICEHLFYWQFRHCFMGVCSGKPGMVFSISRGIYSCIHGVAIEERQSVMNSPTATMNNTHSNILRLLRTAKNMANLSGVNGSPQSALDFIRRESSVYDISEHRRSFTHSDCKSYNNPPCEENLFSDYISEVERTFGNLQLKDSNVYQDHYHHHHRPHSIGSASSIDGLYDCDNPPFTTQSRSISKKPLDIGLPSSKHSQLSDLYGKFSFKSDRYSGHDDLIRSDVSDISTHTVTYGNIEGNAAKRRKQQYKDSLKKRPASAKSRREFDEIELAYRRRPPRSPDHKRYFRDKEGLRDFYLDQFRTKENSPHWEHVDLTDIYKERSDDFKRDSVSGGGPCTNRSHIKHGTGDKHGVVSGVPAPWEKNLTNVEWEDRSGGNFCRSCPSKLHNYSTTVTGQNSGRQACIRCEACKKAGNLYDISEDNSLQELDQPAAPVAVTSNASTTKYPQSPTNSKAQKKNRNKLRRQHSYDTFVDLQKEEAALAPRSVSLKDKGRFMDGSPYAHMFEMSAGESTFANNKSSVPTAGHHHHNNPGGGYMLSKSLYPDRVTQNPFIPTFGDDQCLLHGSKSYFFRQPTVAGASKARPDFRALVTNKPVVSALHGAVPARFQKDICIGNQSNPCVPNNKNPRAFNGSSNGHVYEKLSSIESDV
T1 sequence (P06276 29-602): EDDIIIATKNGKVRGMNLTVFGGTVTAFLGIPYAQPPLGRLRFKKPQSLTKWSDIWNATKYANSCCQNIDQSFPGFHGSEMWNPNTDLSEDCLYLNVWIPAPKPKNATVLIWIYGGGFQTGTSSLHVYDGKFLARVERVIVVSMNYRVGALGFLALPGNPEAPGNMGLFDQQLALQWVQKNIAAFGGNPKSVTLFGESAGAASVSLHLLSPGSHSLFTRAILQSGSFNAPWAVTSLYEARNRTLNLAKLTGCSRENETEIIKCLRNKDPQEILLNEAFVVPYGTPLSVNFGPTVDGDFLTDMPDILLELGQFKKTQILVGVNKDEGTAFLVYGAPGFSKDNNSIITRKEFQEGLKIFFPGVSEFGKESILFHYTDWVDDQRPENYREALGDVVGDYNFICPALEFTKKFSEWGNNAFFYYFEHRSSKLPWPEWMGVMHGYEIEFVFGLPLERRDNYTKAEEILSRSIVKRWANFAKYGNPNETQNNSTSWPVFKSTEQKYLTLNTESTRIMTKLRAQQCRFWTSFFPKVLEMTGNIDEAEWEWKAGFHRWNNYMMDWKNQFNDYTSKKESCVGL
T4 sequence (P22303 32-614): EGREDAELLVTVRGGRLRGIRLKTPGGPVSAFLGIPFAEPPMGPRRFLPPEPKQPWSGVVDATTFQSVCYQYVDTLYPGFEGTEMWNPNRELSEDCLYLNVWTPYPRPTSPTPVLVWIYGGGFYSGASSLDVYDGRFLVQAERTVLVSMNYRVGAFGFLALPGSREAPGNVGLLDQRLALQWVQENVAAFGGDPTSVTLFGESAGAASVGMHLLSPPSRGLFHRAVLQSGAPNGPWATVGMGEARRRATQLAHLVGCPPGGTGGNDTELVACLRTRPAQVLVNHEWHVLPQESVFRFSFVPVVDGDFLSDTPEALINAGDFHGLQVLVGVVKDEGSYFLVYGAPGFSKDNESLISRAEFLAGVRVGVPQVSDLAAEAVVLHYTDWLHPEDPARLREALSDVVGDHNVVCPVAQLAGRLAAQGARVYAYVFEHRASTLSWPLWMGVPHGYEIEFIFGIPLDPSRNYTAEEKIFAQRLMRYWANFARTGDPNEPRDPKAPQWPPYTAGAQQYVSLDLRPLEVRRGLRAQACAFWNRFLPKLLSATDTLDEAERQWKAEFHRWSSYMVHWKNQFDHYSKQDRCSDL

Structure (SMILES) | IC50 [1] | IC50 [2] | IC50 [3] | IC50 [4] | inhibition at 3 µM [5] | inhibition at 3 µM [6] | IC50 [7]
OCCNC1c2ccccc2CCc2ccccc21 [3l, 2-((10,11-dihydro-5H-dibenzo[a,d][7]annulen-5-yl)amino)ethanol hydrochloride] | > 100 µM | 4.4 ± 0.42 µM | 4.42 ± 0.9 µM | > 100 µM | 48 ± 5.18% | 49.7 ± 4.47% | –
CC(C)CNC1c2ccccc2C=Cc2ccccc21 [6f, N-isobutyl-5H-dibenzo[a,d][7]annulen-5-amine hydrochloride] | > 100 µM | 0.16 ± 0.01 µM | 0.36 ± 0.06 µM | > 100 µM | 93.2 ± 1.11% | 91.77 ± 0.71% | –
C1=Cc2ccccc2C(N2CCCCC2)c2ccccc21 [6h, 1-(5H-dibenzo[a,d][7]annulen-5-yl)piperidine hydrochloride] | – | – | – | – | 29.9 ± 2.73% | 58.4 ± 4.37% | 16.5 ± 0.9 µM
